Data set [1] in a line: Cytotoxicity assay (CellTiter-Glo cell viability). To be noted: dog. For orientation: Cellular ATP, detected with luciferase, serves as a proxy for viable cell number.
A further data set has as its system MDCK cells. In words: Cytotoxicity assay (CellTiter-Glo cell viability). As to conditions: dose-dependent, 10 and 25 μM.
In the next data set the target is HA. Also noted: method as in Sauter et al., 1989. As to conditions: monovalent interaction; ref Sauter et al., 1989; read-out: dissociation constant (KD); cited from earlier work.

The CC50 is the concentration giving 50% cytotoxicity. For orientation: viability means a read-out of living cells in per cent, often relative to untreated cells. By Kd is commonly meant the free concentration of one partner at which half of the binding sites on the other are occupied at equilibrium, for simple one-to-one binding.

`CC1(C)[C@@H](O)CC[C@]2(C)[C@H]3C(=O)C=C4[C@@H]5C[C@@](C)(C(=O)O)CC[C@]5(C)CC[C@@]4(C)[C@]3(C)CC[C@@H]12` [Compound 2, glycyrrhetinic acid] gave a CC50 at 48 h in data set [1] (MDCK cells) of 85 ± 6.8 µM. In data set [1] (MDCK cells (uninfected)), the viability at 48 h, 25 µM is 82.8%.
For `CC(=O)O[C@H]1C(=O)[C@@]2(C)[C@H]([C@H](OC(=O)c3ccccc3)[C@]3(O)C[C@H](OC(=O)[C@H](O)[C@@H](NC(=O)c4ccccc4)c4ccccc4)C(C)=C1C3(C)C)[C@]1(OC(C)=O)CO[C@@H]1C[C@@H]2O` [PTX, paclitaxel], the “viability of MDCK cells (words, positive control)” value with MDCK cells is given as “decrease in the viability”.
On to `CC(=O)N[C@H]1[C@H]([C@H](O)[C@H](O)CO)OC(O)(C(=O)O)C[C@@H]1O` (stereo partly shown) [sialic acid], for which, at HA, the Kd was about 2 mM.

The record behind these values is article PMC9039011, “Novel β-Cyclodextrin-Based Heptavalent Glycyrrhetinic Acid Conjugates: Synthesis, Characterization, and Anti-Influenza Activity” (Frontiers in Chemistry, 2022).
